Reference: US20260347399A1, “BRAIN PENETRATING PEPTIDES AND METHODS OF USE” (priority 2022, published 2026)
“Also recorded” adds a separate entry of the source. Ends that are not written are not given here.

Tests used:
rat brain = test: Peptide-phage biodistribution after i.v. injection, rats; assay type: in vivo; settings: 1 h
Procedure: (§1) For titering-based biodistribution studies, nucleotide sequences coding for peptides of interest were cloned into T7 phage genomic DNA to be expressed on the phage surface as C-terminal fusions to capsid protein. The cloning was performed using complementary oligonucleotides, the phage clones were amplified, and purified as described in (Põšnograjeva, et al., 2022). 5×10^9 pfu of peptide-phage clone was injected i.v. into male Balb/C mice or 5×10^10 pfu of phage was injected into female Sprague-Dawley rats (n=3). 60 min later, the animals were anesthetized and perfused with PBS. The tissues were collected, homogenized, and the amount of phage in tissue lysates was determined by titering using E. coli strain BLT5615.
(§2) The brain selectivity of SRRVISRAKLAAAL (SEQ ID NO:9) phage following a systemic administration was studied in mice and rats by determining the titer of […] (SEQ ID NO:9) and control phage in multiple control tissues.

mouse brain [1] = test: Peptide-phage biodistribution after i.v. injection; assay type: in vivo
Procedure: as §1
A complete listing of peptides that were identified from Ion Torrent high throughput sequencing from bio-panning Round 5 is set forth in Table 1B.
The peptide-phage was injected i.v. and following 1 h circulation, the mice were perfused, brain and control organs were collected and phage titer in each tissue was determined. Insertless T7 phage was used as a negative control and a phage displaying BBB penetrating peptide Angiopep-2 (TFFYGGSRGKRNNFKTEEY; SEQ ID NO:97) was used for comparison. Cerepep phage achieved approximately 300-fold higher accumulation in mouse brain compared to control and Angiopep-2 phages (FIG. 2A; Peptide-phage accumulation in the brain. 5×10^9 pfu of phage was injected i.v. and following 1 h circulation mice were perfused with PBS. The amount of phage accumulated in the brain was determined by titering). To assess the brain distribution of […] (SEQ ID NO:9), the mouse brain was dissected to separate the olfactory bulbs, cerebellum, brain stem and the hemispheres before determining the titer in the tissue.
as §2

WT GBM cells = test: Proximity labelling with peptide-HRP complex and mass spectrometry; assay type: cell-based, mouse; settings: WT GBM and Neuro2A proximity labelling, mass spectrometry
Procedure: To assess the efficiency and specificity of proximity labelling, WT GBM cells were cultured in 24-well plates on polylysine coated glass coverslips until 80-90% confluency. Cerepep and horseradish peroxidase complex (CP-HRP) was prepared by conjugating biotinylated Cerepep to streptavidin-HRP. Control biotin-HRP complex was prepared by conjugating biotin to streptavidin-HRP. 4 μM CP-HRP or biot-HRP in DPBS was added to the cells and incubated at 37 °C for 1 h. The cells were washed with DPBS. 500 μM biotin-phenol (Iris Biotech #41994-02-9) in DPBS was added to the cells and incubated at 37 °C for 30 min. To start the reaction, H2O2 with the final concentration of 1 mM was added to the cells and incubated for 2 min at RT. The reaction was stopped by washing with 100 U/ml catalase in DPBS. Cells were fixed in 4% PFA and biotinylated proteins were detected with Streptavidin-Dylight 550 conjugate (1:500 in DPBS). Nuclei were stained with DAPI and the biotinylation of cells was analyzed with confocal microscopy.
To biotinylate the receptor of Cerepep peptide to be detected with mass spectrometry, the proximity labelling was performed on WT GBM and Neuro2A cells in suspension following the same protocol as with attached cells. […]
Biotin was detected with Streptavidin DyLight550. The WT GBM cells were analyzed with confocal microscopy. […]

WT GBM = test: In vitro phage binding to cells; assay type: cell-based, mouse; settings: 4 °C, 1 h
Procedure: (§3) To assess the binding of Cerepep phage, the cells were cultured in 24-well plates on polylysine coated glass coverslips until 80-90% confluency. The cells were incubated with Cerepep or control insertless peptide-phage at a final concentration of 5×10^7 pfu in 1 ml of DMEM+BSA (1%) at 4 °C for 1 h on a rocking platform. The wells were washed 4 times with 1 ml of DMEM+BSA (1%), the cells were lysed in 1 ml LB+NP40 and the amount of phage bound to the cells was determined by titering.
(§4) Binding of SRRVISRAKLAAAL (SEQ ID NO:9) phage to a panel of different cell lines was studied in vitro.

Neuro2A = test: In vitro phage binding to cells; assay type: cell-based, mouse; settings: 4 °C, 1 h
Procedure: as §3, §4

mouse brain [2] = test: In vivo play-off screen with 4 CX4CYX peptides; settings: compared to CAGALCY
22 different cell-lines = test: CVGTNCY peptide-phage binding on cell lines; assay type: cell-based, human or mouse; settings: +4 °C, 1 h; over control phage G7
Procedure: 22 different cell-lines derived from human or mouse tumors or normal tissues were used in the experiments (Table 4).
To evaluate the CVGTNCY (SEQ ID NO:2) peptide-phage binding on cell lines, the CVGTNCY (SEQ ID NO:2) peptide-phage and control G7 phage were incubated on attached cells (except NCH421k cells that grow as speroids) in DMEM-0.5% BSA for 1 hour at +4 °C. Thereafter, the cells were washed four times with DMEM-0.5% BSA and phage was released in 1% NP40-LB to determine the titer of the samples.
An in vitro proximity labeling method was planned to use for the identification of the CVGTNCY (SEQ ID NO:2) peptide receptor. To accomplish receptor search, binding of CVGTNCY (SEQ ID NO:2) peptide-phage on 22 different cell-lines isolated from various tumors and normal tissues was tested.

brain tissue homogenate = test: Peptide-phage binding to brain tissue homogenate ex vivo; set-up: species or system mouse

Row | Substance | brain selectivity (titer in brain vs control tissues) (rat brain) | homing preference (mouse brain [1]; mouse, in vivo) | accumulation in mouse brain, fold over Angiopep-2 phage (mouse brain [1]; peptide-phage 5×10^9 pfu i.v., 1 h, vs Angiopep-2 phage) | accumulation in mouse brain, fold over control phage (mouse brain [1]; peptide-phage 5×10^9 pfu i.v., 1 h, vs insertless control phage) | accumulation in the brain, shorter versions of Pep1 (mouse brain [1]; peptide-phage 5×10^9 pfu i.v., 1 h circulation) | brain selectivity (titer in brain vs control tissues) (mouse brain [1]; peptide-phage i.v., 1 h, mice) | accumulation in brain regions and spinal cord (mouse brain [1]; peptide-phage i.v., 1 h, olfactory bulbs, cerebellum, brain stem, hemispheres, spinal cord, compared to control phage) | most probable receptor candidate (WT GBM cells) | binding of peptide-phage, fold over insertless phage (WT GBM) | binding of peptide-phage, fold over insertless phage (Neuro2A) | representation in the brain (mouse brain [2]) | peptide-phage binding on cell lines (22 different cell-lines) | binding to brain tissue homogenate ex vivo in the presence of whole blood (brain tissue homogenate; with blood sample, p<0.05) | binding to brain tissue homogenate ex vivo (brain tissue homogenate; without blood)
1 | SRRVISRAKLAAAL [Cerepep, SRRVISRAKLAAAL] | highest accumulation in the brain and low accumulation in all other tested tissues | homes preferentially to the eyes/brain/CNS | approximately 300 fold | approximately 300 fold | shortest peptide still achieving a high accumulation in the brain | highest accumulation in the brain and low accumulation in all other tested tissues | high accumulation in all tested brain regions as well as in the spinal cord | LRP1 was considered the most probable candidate | at least 50 fold | at least 50 fold | – | – | – | –
2 | CVGTNCY | – | – | – | – | – | – | – | – | – | – | highest representation in the brain | minimal binding | significantly increase binding | no binding was detected; also recorded: significantly disrupted
